Source: PMC11117661, “Development of a Novel In Silico Classification Model to Assess Reactive Metabolite Formation in the Cysteine Trapping Assay and Investigation of Important Substructures” (Biomolecules, 2024)

Assay: not given
Details: human, 2 h, 20 µM, pH 7.4

Row | RI integrated area [count] | Structure (SMILES)
1 | 243.5 | Nc1c2c(nc3ccccc13)CCCC2 [Tacrine]

Assay: cysteine trapping assay ([35S]cysteine, HPLC with radiomatic detector) for reactive metabolites
Details: human liver microsome 2 mg/mL, L-[35S]-Cysteine, NADPH, 37 °C, 2 h
Procedure: The reagents for making the reaction solution were phosphate buffer (pH 7.4; 100 mM), ethylenediaminetetraacetic acid (EDTA; 1 mM) (Tokyo Kasei, Tokyo, Japan), MgCl2 hexahydrate (Fuji Film Wako Co., Ltd., Osaka, Japan, reagent special grade; 3 mM), glucose-6-phosphate (G6P; 5 mM) (Roche, Basel, Switzerland), G6P dehydrogenase (G6PDH; 1 IU) (Oriental Yeast Co., Ltd., Tokyo, Japan), human liver microsome solution (Xenotech, Kansas City, MO, USA; 2 mg/mL), and L-[35S]-Cysteine (PerkinElmer Japan Co., Ltd., Kanagawa, Japan; 3.7 MBq/mL), which were prepared using ultrapure water. The evaluation compound was dissolved in dimethyl sulfoxide (DMSO) and its concentration was adjusted to 4 mM. This was used as a substrate solution.
On ice, 239 µL of the reaction solution was dispensed into a glass tube and then 1.25 µL of the substrate solution was added, mixed, and placed in a water bath (PERSONAL-11, Taitec Co., Ltd., Saitama, Japan) at 37 °C. After pre-incubation for 5 min, 10 µL of 25 mM nicotinamide adenine dinucleotide phosphate (NADPH) (Roche, Basel, Switzerland) solution was added and mixed to a final concentration of 20 µM to initiate a metabolic reaction and incubated in a water bath at 37 °C for 2 h. After incubation, 500 µL of acetonitrile was added and mixed, and the tube was chilled on ice to deproteinize, after which 50 µL of 250 mM GSH solution was added and mixed to stop the reaction, and centrifuged (approximately 1500× g, 4°C, 10 min, CF16RXII, Hitachi, Ltd., Tokyo, Japan). After centrifugation, 750 µL of the supernatant was transferred to a new glass tube and concentrated by vacufugation (VC-96N, Taitec Co., Ltd., Saitama, Japan) for 2 h. After concentrating the solution, we added 100 µL of the redissolving solution (40% methanol solution), mixed it with a vortex (IS-MBI minimixer, Ikeda Rika Co., Ltd., Tokyo, Japan) to redissolve, and then the sample was placed in a filter tube [Merck Millipore, Darmstadt, Germany] and centrifuged (approximately 5000× g, room temperature, 10 min).
Both High Performance Liquid Chromatography (HPLC) (Nexera XR, Shimadzu Corporation, Kyoto, Japan) and a radiomatic detector (Radiomatic 610TR, PerkinElmer Japan Co., Ltd.) were used to analyze the prepared samples. The 35S content was detected by running the separated sample via the 45-min analytical method through a radiomatic detector. The mobile phase was composed of a gradient of 0.1% (v/v) formic acid/water and 0.1% (v/v) formic acid/acetonitrile, and the chromatographic separation was performed using a column (Synergi 4 μm Hydro-RP 80A 150 × 3.00 mm, Phenomenex, Torrance, CA, USA).
Considering this, the amount of covalent binding in microsomes in the in vitro covalent binding test of 50 pmol/g or more was judged as a risk. The threshold of the total RI integrated area in cysteine trapping at that time was about 1000 counts. Therefore, we labeled compounds with more than 1000 counts of RI integrated area as positive, and those with less than 1000 counts as negative.

Row | Structure (SMILES) | RI integrated area [count]
2 | Cc1c(N(C)C)c(=O)n(-c2ccccc2)n1C [Aminopyrine] | 44.3
3 | CCN(CC)Cc1cc(Nc2ccnc3cc(Cl)ccc23)ccc1O [Amodiaquine] | 346.7
4 | CCc1oc2ccccc2c1C(=O)c1cc(Br)c(O)c(Br)c1 [Benzbromarone] | 4516.4
5 | Cn1c(=O)c2c(ncn2C)n(C)c1=O [Caffeine] | 22.4
6 | NC(=O)N1c2ccccc2C=Cc2ccccc21 [Carbamazepine] | 61.8
7 | COC(=O)[C@H](c1ccccc1Cl)N1CCc2sccc2C1 [Clopidogrel] | 708.2
8 | O=C(O)Cc1ccccc1Nc1c(Cl)cccc1Cl [Diclofenac] | 1230.1
9 | CNCCC(Oc1ccc(C(F)(F)F)cc1)c1ccccc1 (stereo not shown) [Fluoxetine] | 153.8
10 | CC(C)C(=O)Nc1ccc([N+](=O)[O-])c(C(F)(F)F)c1 [Flutamide] | 680.4
11 | COc1ccc2c(c1)c(CC(=O)O)c(C)n2C(=O)c1ccc(Cl)cc1 [Indomethacin] | 89.0
12 | C[C@H]1COc2c(N3CCN(C)CC3)c(F)cc3c(=O)c(C(=O)O)cn1c23 [Levofloxacin] | 150.3
13 | O=C1NC(=O)C(c2ccccc2)(c2ccccc2)N1 [Phenytoin] | 34.7
14 | CCc1ccc(CCOc2ccc(CC3SC(=O)NC3=O)cc2)nc1 (stereo not shown) [Pioglitazone] | 105.8

More lines, now with the values ahead:

Row | RI integrated area [count] | Structure (SMILES)
15 | 25.4 | CC[C@H](C)C(=O)O[C@H]1C[C@H](O)C=C2C=C[C@H](C)[C@H](CC[C@@H](O)C[C@@H](O)CC(=O)O)[C@H]21 [Pravastatin]
16 | 3667.2 | CC(C)NCC(O)COc1cccc2ccccc12 (stereo not shown) [Propranolol]
17 | 593.9 | CC(C)c1nc(CN(C)C(=O)N[C@H](C(=O)N[C@@H](Cc2ccccc2)C[C@H](O)[C@H](Cc2ccccc2)NC(=O)OCc2cncs2)C(C)C)cs1 [Ritonavir]
18 | 1593.7 | CN(CCOc1ccc(CC2SC(=O)NC2=O)cc1)c1ccccn1 (stereo not shown) [Rosiglitazone]
19 | 162.1 | CC/C(=C(\c1ccccc1)c1ccc(OCCN(C)C)cc1)c1ccccc1 [Tamoxifen]
20 | 3783.7 | O=C(O)COc1ccc(C(=O)c2cccs2)c(Cl)c1Cl [Tienilic acid]
21 | 521.7 | Cc1c(C)c2c(c(C)c1O)CCC(C)(COc1ccc(CC3SC(=O)NC3=O)cc1)O2 (stereo not shown) [Troglitazone]
22 | 263.4 | COc1cc(C(=O)NS(=O)(=O)c2ccccc2C)ccc1Cc1cn(C)c2ccc(NC(=O)OC3CCCC3)cc12 [Zafirlukast]
23 | 217.5 | Cc1cc(CC(=O)O)n(C)c1C(=O)c1ccc(Cl)cc1 [Zomepirac]

Same assay, conditions: threshold area 1000

Row | outcome in the cysteine trapping assay | Structure (SMILES)
24 | negative | CCc1ccc(CCOc2ccc(CC3SC(=O)NC3=O)cc2)nc1 (stereo not shown) [Pioglitazone]
25 | negative | Cc1c(C)c2c(c(C)c1O)CCC(C)(COc1ccc(CC3SC(=O)NC3=O)cc1)O2 (stereo not shown) [Troglitazone]
